Reference: PubChem BioAssay (NCI)
Where “and” joins values, the source holds several entries; their conditions need not be identical. Equal entries are not always repeated.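 These data come from cells grown in 96-well plates and exposed to compound for 48 hours at five concentrations. Here, GI50 denotes the concentration required for 50% inhibition of growth. TGI marks complete inhibition of growth.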

Test system: MDA-MB-468 breast
Test: NCI tumour cell line growth inhibition, 48 h

Row | SMILES | GI50 | TGI
1 | COc1ccc(C(=O)COc2cccc(/C=C3\CSc4ccc(C)cc4C3=O)c2)cc1 | 4840 nM | 36900 nM
2 | c1ccc(Cn2c(-c3ccc(OC[C@H](C4CCNCC4)n4c(-c5ccccc5)nc5ccccc54)cc3)nc3ccccc32)cc1 | 1120 nM | 2460 nM
3 | CS(=O)(=O)CCNCc1ccc(-c2ccc3ncnc(Nc4ccc(OCc5ccccc5)c(Cl)c4)c3c2)o1 | 10.7 nM | 196 nM
4 | O=C1CCc2c(sc3[nH]c(=S)n(Cc4ccccc4)c(=O)c23)C1 | 2950 nM | 9310 nM
5 | Cc1ccc(S(=O)(=O)Cc2nc(-c3ccc(C(=O)NCc4cccnc4)cc3)oc2C)cc1 | 4740 nM | > 100000 nM
6 | CCCSC1=NC2C(N(CC)C(=O)N2CC)N1/N=C/C=C/c1ccccc1[N+](=O)[O-] (centres undefined) | 3060 nM | > 100000 nM
7 | CCCCCc1ccc(S(=O)(=O)N(C(C)=O)c2cccc(-c3csc(N(CCN4CCN(C)CC4)C(C)=O)n3)c2)cc1 | 735 nM | 2710 nM
8 | O=C(O)c1ccc2c(c1)nc(Nc1cccc(Cl)c1)c1ccncc12 | 1050 nM and 1670 nM | 4840 nM and 8970 nM
9 | COc1ccc(-c2nc3cc(Cl)c(Cl)cc3n2CC(=O)N=Nc2c(O)[nH]c3ccc(Cl)cc23)cc1 | 1700 nM | 3400 nM
10 | CCOC(=O)c1cc2c(n1Cc1ccccc1)-c1oncc1CC2 | 2190 nM | 7760 nM
11 | CN(CCCl)c1ccc(/C=C/C2=[N+](C)c3ccccc3C2(C)C)cc1 | 353 nM | 1690 nM
12 | CCCCCc1ccc(S(=O)(=O)Nc2cc(-c3csc(NC(=O)CN4CCN(C)CC4)n3)ccc2OC)cc1 | 917 nM | 2110 nM
13 | CCCCn1sc(=O)n(Cc2ccc(CNC(=O)OCc3ccc4c(Br)cc(Br)c(O)c4n3)cc2)c1=O | 388 nM | > 100000 nM
14 | COc1cnc2c(c1)C(=O)c1c-2n(CCCN2CCCC2)c(=O)c2cc(F)ccc12 | 175 nM | 517 nM
15 | COc1ccc(Cn2cc3c(c2-c2cc(OC)c(OC)c(OC)c2)CCc2cnoc2-3)cc1[N+](=O)[O-] | 376 nM | 4220 nM
16 | C/C(=C\c1ccc(Cl)c(Cl)c1)[N+](=O)[O-] | 1550 nM | 3020 nM
17 | COc1ccc(-c2cc(-c3cc(OC)c(OC)c(OC)c3)c(C#N)c(N3CCOCC3)n2)cc1O | 13400 nM | > 100000 nM
18 | CCCCCCCC(=O)SCC/C=C/[C@@H]1CC(=O)NCc2nc(co2)C2=N[C@@](C)(CS2)C(=O)N[C@@H](C(C)C)C(=O)O1 | 29.1 nM | 23500 nM
19 | CCC1CCc2nc3sc(C(=O)Nc4ccccc4C)c(N)c3cc2C1 (centres undefined) | 244 nM | 742 nM
20 | CN(C[C@@H]1COCCO1)S(=O)(=O)Nc1ccc2ccc3ncc(-c4cnn(C)c4)cc3c(=O)c2c1 | 7130 nM | > 100000 nM
21 | CC(=O)[O][Hg][c]1ccccc1 | 154 nM | 341 nM

Row | SMILES | GI50 | TGI
22 | C#CCOc1cccc(Nc2ncnc3ccc(NC(=O)CCl)cc23)c1 | 3160 nM | 27200 nM
23 | Cc1c(NC(=O)OC[C@@H]2COCCN2)cn2ncnc(Nc3ccc4c(cnn4Cc4cccc(F)c4)c3)c12 | 120 nM and 45.4 nM | 1120 nM and 329 nM
24 | O=C(O)C1(Cc2cccc(Nc3nccs3)n2)CCC(Oc2cccc(Cl)c2F)CC1 (centres undefined) | 526 nM | 34600 nM
25 | CNCCCNc1nc2ccccc2c2c(=O)c3cc(Cl)ccc3sc12 | 1260 nM | 2830 nM
26 | C/C(Cc1ccc(Cl)cc1)=C(/c1ccc(Cl)cc1)c1ccc(OCCN(C)C)cc1 | 2970 nM | 7760 nM
27 | Nc1c(C(=O)Nc2ccccc2F)sc2nc3c(cc12)C(=O)CCC3 | 247 nM | 956 nM
28 | O=C(OCc1ccc2c(Cl)cc(Cl)c(O)c2n1)c1cc2ccccc2[nH]1 | 238 nM | 626 nM
29 | COc1ccc(C(=O)c2cc3c(N)c(C(=O)Nc4cccc(Cl)c4C)sc3nc2C)cc1 | 70.7 nM | 1220 nM
30 | COc1ccccc1S(=O)(=O)Nc1ccc2c(c1)CN(C)C(=O)N2 | 2400 nM and 1440 nM | > 56100 nM and 50300 nM
31 | CCOC(=O)Nc1ccc(-c2nc(-c3cccc(OC)c3)c(-c3ccnc(Br)c3)[nH]2)cc1 | 1670 nM | 4910 nM
32 | N[C@@H]1CCCN(c2c(/C=C3\SC(=O)NC3=O)cccc2-c2ccccc2)C1 | 9540 nM | 24500 nM
33 | CCN1C(=O)N(c2ccccc2)C2NN=c3s/c(=C4\C(=O)N(C(C)C)c5ccccc54)c(=O)n3C21 (centres undefined) | 817 nM | 4180 nM
34 | Cc1nc2n(c(=O)c1CCN1CCC(c3noc4cc(F)ccc34)CC1)CCCC2 | 34000 nM | > 50000 nM
35 | O=C(CCCCCCSc1nc(-c2ccc(Cl)cc2)cc(-c2ccc(Cl)cc2)n1)NO | 1620 nM | 6380 nM
36 | CC(=O)OCC1O[C@@H]([S-])C(OC(C)=O)[C@H](OC(C)=O)[C@@H]1OC(C)=O.[Au+].c1ccc(CN2[CH-]N(Cc3ccccc3)C(c3ccccc3)=C2c2ccccc2)cc1 | 1540 nM | 3260 nM
37 | C=C1C(=O)O[C@H]2[C@H]1CC/C(COC(=O)c1ccc(C#N)cc1)=C\CC[C@@]1(C)O[C@@H]21 | 1030 nM | 3130 nM
38 | C#Cc1cccc(Nc2nc3ccc([N+](=O)[O-])cc3nc2Nc2cccc(C#C)c2)c1 | 174 nM | 499 nM
39 | O=[N+]([O-])c1ccc2ncccc2c1Cl | 1870 nM | 4810 nM
40 | COc1cc2nc3cc([N+](=O)[O-])ccc3c(NCCCNCC(C)(C)O)c2cc1OC | 230 nM | 570 nM
41 | CC1=C[S+](c2ccccc2)c2cccc3cc4ccccc4c1c23 (centres undefined) | 78.5 nM | 766 nM
42 | COc1cccc(C2C3=C(COC3=O)Oc3cc4c(cc32)OCO4)c1 (centres undefined) | 81.7 nM | > 100000 nM
